Measured values reported in BigSolDB 2.1.

CC(=O)Oc1ccccc1C(=O)O
Conditions | solubility (mole fraction)
in acetone, 281.9 K | 0.061
in acetone, 290.6 K | 0.075
in acetone, 297.9 K | 0.088
in acetone, 304.4 K | 0.101
in acetone, 310.6 K | 0.114
in acetone, 315.3 K | 0.127
in acetone, 319.8 K | 0.139
in acetone, 323.3 K | 0.151
in acetone, 326.3 K | 0.162
in ethanol, 276.3 K | 0.025
in ethanol, 291.9 K | 0.049
in ethanol, 302.4 K | 0.071
in ethanol, 310 K | 0.093
in ethanol, 316.5 K | 0.113
in ethanol, 321.5 K | 0.133
in ethanol, 325.9 K | 0.152
in ethanol, 330.4 K | 0.17
in ethanol, 333.4 K | 0.187
in ethanol, 336.6 K | 0.204
in isopropanol, 281.6 K | 0.013
in isopropanol, 291.8 K | 0.032
in isopropanol, 304.1 K | 0.063
in isopropanol, 312.9 K | 0.091
in isopropanol, 316.1 K | 0.102
in isopropanol, 320.4 K | 0.118
in isopropanol, 322.7 K | 0.128
in isopropanol, 325.8 K | 0.143
in isopropanol, 327.7 K | 0.153
in isopropanol, 330.2 K | 0.167
in propylene glycol, 295.7 K | 0.017
in propylene glycol, 301.1 K | 0.025
in propylene glycol, 305.1 K | 0.033
in propylene glycol, 308.2 K | 0.041
in propylene glycol, 313.6 K | 0.056
in propylene glycol, 318.3 K | 0.071
in propylene glycol, 323.7 K | 0.092
in propylene glycol, 327.9 K | 0.112
in propylene glycol, 330.7 K | 0.126
in propylene glycol, 333.9 K | 0.145
